This note sets out measurements from patent US10286022B2, “Medicinal composition of extract of seed of emblica officinalis and method of preparing the same” (priority 2013, dated 2019).

The subject of assay [1] is Triton WR 1339 induced dyslipidemia in Albino rats (Sprague Dawley strain). Kind of assay: Hypolipidemic activity compared with other amla extracts, Triton WR 1339 model (Example 25). The assay is classed as in vivo, rat. The protocol:
Forty eight male Albino rats (Sprague Dawley strain) weighing approximate 250-300 gm were selected for the study. The animals were kept in the animal house maintained at temp 24±2° C., 65% relative humidity and 12 hr light/dark cycle. The rats were acclimatized for two weeks and during this period they had access to standard pellet diet and water ad libitum. After two weeks of acclimatization, all the rats were fasted overnight before injecting Triton WR 1339 (Tyloxapol) and administration of test extracts/standard. The animals were divided into twelve groups. Following treatment was given to overnight fasted rats: • Group I: Normal control (vehicle only). • Group II: Triton WR 1339 (300 mg/kg, intraperitoneal). • Group III: Triton WR 1339 (300 mg/kg, intraperitoneal) followed by ethyl acetate of methanol extract of amla seed prepared as per example 1 (2.5 mg/kg, per oral). • Group IV: Triton WR 1339 (300 mg/kg, intraperitoneal) followed by water part of methanol extract of amla seed prepared as per example 1 (2.5 mg/kg, per oral). • Group V: Triton WR 1339 (300 mg/kg, intraperitoneal) followed by ethyl acetate extract of amla seed prepared as per example 2 (2.5 mg/kg, per oral). • Group VI: Triton WR 1339 (300 mg/kg, intraperitoneal) followed by powder of dried amla seed prepared as per example 7 (2.5 mg/kg, per oral). • Group VII: Triton WR 1339 (300 mg/kg, intraperitoneal) followed by water extract of dried amla seed powder prepared as per example 8 (2.5 mg/kg, per oral). • Group VIII: Triton WR 1339 (300 mg/kg, intraperitoneal) followed by methanol extract of dried amla seed powder prepared as per example 9 (2.5 mg/kg, per oral). • Group IX: Triton WR 1339 (300 mg/kg, intraperitoneal) followed by powder of dried amla fruit prepared as per example 10 (2.5 mg/kg, per oral). • Group X: Triton WR 1339 (300 mg/kg, intraperitoneal) followed by water extract of dried Amla fruit powder prepared as per example 11 (2.5 mg/kg, per oral). • Group XI: Triton WR 1339 (300 mg/kg, intraperitoneal) followed by methanol extract of dried amla fruit powder prepared as per example 12 (2.5 mg/kg, per oral). • Group XII: Triton WR 1339 (300 mg/kg, intraperitoneal) followed by atorvastatin (2.5 mg/kg, per oral).
The animals were deprived of food for next 24 hours but had free access to water ad libitum. After 24 hour of drug treatment 2 ml blood samples were collected from the retro orbital plexus. The blood was allowed to clot and then centrifuged at 3000 rpm for 10 min and the serum was carefully drawn and collected into separate tubes. The serum was analyzed for total cholesterol, triglycerides, high density lipoproteins (HDL), low density lipoproteins (LDL) and very low density lipoproteins (VLDL) levels using auto-analyzer.

Assay [2] has the same test system. Kind of assay: Hypolipidemic activity of product 3 compared with amla seed powder, Triton WR 1339 model (Example 26). The assay is classed as in vivo, rat. The protocol:
Twenty eight male Albino rats (Sprague Dawley strain) weighing approximately 250-300 gm were selected for the study. The animals were maintained at temperature of 24±2° C., 65% relative humidity and 12 hr light/dark cycle. The rats were acclimatized for two weeks and during this period they had access to standard pellet diet and water ad libitum. After two weeks of acclimatization, all the rats were fasted overnight before injecting Triton WR 1339 (Tyloxapol) and administration of test extracts/standard. The animals were divided into seven groups. Following treatment was given to overnight fasted rats: • Group I: Normal control (vehicle only) • Group II: Triton WR 1339 (300 mg/kg, intraperitoneal) • Group III: Triton WR 1339 (300 mg/kg, intraperitoneal) followed by administering product of amla seed extract (product 3) on the same day of triton administration (0.5 mg/kg, per oral) • Group IV: Triton WR 1339 (300 mg/kg, intraperitoneal) followed by product 2 (50% methanol fraction+80% methanol fraction+water fraction) of amla seed extract on the same day that Triton was administered (0.5 mg/kg, per oral) • Group V: Triton WR 1339 (300 mg/kg, intraperitoneal) followed by product 1 (Hexane fraction) of amla seed extract on the same day that Triton was administered (0.5 mg/kg, per oral) • Group VI: Triton WR 1339 (300 mg/kg, intraperitoneal) followed by powder of dried amla seed prepared as per Example 7 (0.5 mg/kg, per oral). The powder of dried amla seed was administered on the same day as triton was administered. • Group VII: Triton WR 1339 (300 mg/kg, intraperitoneal) followed by atorvastatin administration (10 mg/kg, per oral), on the same day.
The animals were deprived of food for next 24 hours but had free access to water ad libitum. After 24 hours of drug treatment, 2 ml of blood sample was collected from the retro orbital plexus. The blood was allowed to clot and then centrifuged at 3000 rpm for 10 min and the serum was carefully drawn and collected into separate tubes. The serum was analyzed for total cholesterol, triglycerides, high density lipoproteins (HDL), low density lipoproteins (LDL) and very low density lipoproteins (VLDL) levels using auto-analyzer.

[3] abbreviates: 24 h after Triton i.p. + 2.5 mg/kg p.o.
[4] abbreviates: 24 h after Triton i.p. + 10 mg/kg p.o.

Each structure is given as a SMILES string.

Regarding `CC(C)c1c(C(=O)Nc2ccccc2)c(-c2ccccc2)c(-c2ccc(F)cc2)n1CC[C@@H](O)C[C@@H](O)CC(=O)O` [Atorvastatin], the “effect on cholesterol and triglyceride levels” value in assay [1] (2.5 mg/kg p.o.) is given as “effective in lowering the cholesterol as well as triglyceride levels”. In assay [1] (setting [3]), the “HDL After” value worked out at 39.56 mg/dL, the “LDL After” value was 44.53 mg/dL, the “TC After” value stood at 123.14 mg/dL and the “TG After” value came out at 195.25 mg/dL. The “VLDL After” value in assay [1] (setting [3]) was 39.05 mg/dL. In assay [1] (baseline, 2.5 mg/kg p.o. group), the “HDL Before” value amounted to 36.54 mg/dL, the “LDL Before” value was 57.99 mg/dL, the “TC Before” value was 104.44 mg/dL and the “TG Before” value is 49.54 mg/dL. For the same compound, the “VLDL Before” value in assay [1] (baseline, 2.5 mg/kg p.o. group) was found to be 9.91 mg/dL. Moreover, in assay [2] (setting [4]), the “HDL After” value worked out at 38.46 mg/dL, the “LDL After” value was determined as 44.30 mg/dL, the “TC After” value came out at 121.21 mg/dL and the “TG After” value was 192.25 mg/dL. The “VLDL After” value in assay [2] (setting [4]) was determined as 44.30 mg/dL. In addition, in assay [2] (baseline, 10 mg/kg p.o. group), the “HDL Before” value came to 35.54 mg/dL, the “LDL Before” value was 58.22 mg/dL, the “TC Before” value stood at 103.47 mg/dL and the “TG Before” value came out at 48.54 mg/dL. In addition, the “VLDL Before” value in assay [2] (baseline, 10 mg/kg p.o. group) came out at 58.22 mg/dL.
